Measured values taken from ChEMBL document CHEMBL1147813, “Design, molecular modeling, synthesis, and anti-HIV-1 activity of new indolyl aryl sulfones. Novel derivatives of the indole-2-carboxamide” (J Med Chem, 2006).

Tests used:
[1] = test system: MT4; assay: Selectivity index, TC50 for MT4 cell line/EC50 for HIV1; assay type: functional
[2] = test system: Human immunodeficiency virus 1; assay: Antiviral activity against HIV1 K103N-Y181C mutant in MT4 cell line; assay type: functional, organism-based; settings: Human immunodeficiency virus 1, MT4
[3] = test system: C8166; assay: Antiproliferative activity against C8166 cell line by MTT assay; assay type: functional; settings: Homo sapiens, read-out: TC50 (the source's name)
[4] = test system: Human immunodeficiency virus 1; assay: Antiviral activity against HIV1 Y181C mutant in MT4 cell line; assay type: functional, organism-based; settings: Human immunodeficiency virus 1, MT4
[5] = test system: Human immunodeficiency virus 1; assay: Antiviral activity against HIV1 in MT4 cell line; assay type: functional, organism-based; settings: Human immunodeficiency virus 1, MT4; read-out: EC50
[6] = test system: C8166; assay: Selectivity index, TC50 for C8166 cell line/EC50 for HIV1; assay type: functional
[7] = test system: Human immunodeficiency virus 1; assay: Antiviral activity against HIV1 in C8166 cell line; assay type: functional, organism-based; settings: Human immunodeficiency virus 1, C8166
[8] = test system: MT4; assay: Cytotoxicity against MT4 cell line by MTT assay; assay type: functional; settings: Homo sapiens, read-out: TC50 (the source's name)
[9] = test system: Human immunodeficiency virus 1; assay: Antiviral activity against HIV1 3B in MT4 cell line; assay type: functional, organism-based; settings: Human immunodeficiency virus 1, 3B
[10] = test system: Human immunodeficiency virus 1; assay: Antiviral activity against HIV1; assay type: functional, organism-based
[11] = test system: Human immunodeficiency virus; assay: Activity against HIV-112 assessed by inhibition of p24 production in human lymphocytes; assay type: functional, organism-based; settings: Human immunodeficiency virus 1
[12] = test system: Lymphocyte; assay: Cytotoxicity against human lymphocytes; assay type: functional; settings: read-out: TC50 (the source's name)
[13] = test system: Human immunodeficiency virus 1; assay: Activity against HIV1 3B assessed by inhibition of p24 production in human lymphocytes; assay type: functional, organism-based; settings: Human immunodeficiency virus 1, 3B
[14] = test system: Human immunodeficiency virus; assay: Activity against HIV-AB1 assessed by inhibition of p24 production in human lymphocytes; assay type: functional, organism-based; settings: Human immunodeficiency virus 1

Cc1cc(C)cc(S(=O)(=O)c2c(C(=O)NCC(N)=O)[nH]c3ccc(Cl)cc23)c1
Selectivity index [1]: 4500
EC50 [2]: 1200 nM
CC50 [3]: > 100000 nM
EC50 [4]: 50 nM
EC50 [5]: 10 nM
Selectivity index [6]: >5000
EC50 [7]: 20 nM
CC50 [8]: 45000 nM
EC50 [9]: 10 nM

Cc1cc(C)cc(S(=O)(=O)c2c(C(=O)NCC(=O)NN)[nH]c3ccc(Cl)cc23)c1
Selectivity index [1]: >5000
EC50 [2]: 2600 nM
CC50 [3]: > 100000 nM
EC50 [4]: 60 nM
EC50 [5]: 20 nM
Selectivity index [6]: >5000
EC50 [7]: 20 nM
CC50 [8]: > 100000 nM
EC50 [9]: 20 nM

Cc1cc(C)cc(S(=O)(=O)c2c(C(=O)NNCCO)[nH]c3ccc(Cl)cc23)c1
EC50 [10]: 1 nM

Cc1ccc(Sc2c(C(=O)NNCCO)[nH]c3ccc(Cl)cc23)c(C)c1
EC50 [10]: 1200 nM

O=C(NCCO)c1[nH]c2ccc(Cl)cc2c1Sc1ccccc1
EC50 [10]: 40 nM

Cc1cccc(S(=O)(=O)c2c(C(=O)NNCCO)[nH]c3ccc(Cl)cc23)c1
EC50 [10]: 7 nM

CCOC(=O)c1cc2cc(Cl)ccc2n1S(=O)(=O)c1cc(Cl)ccc1N
EC50 [10]: 8300 nM

Nc1ccccc1-n1ccc2ccccc21
EC50 [10]: 4960 nM

CCOC(=O)c1cc2cc(Cl)ccc2n1S(=O)(=O)c1ccc(Cl)cc1
EC50 [10]: > 200000 nM

Cc1ccccc1S(=O)(=O)c1c(C(=O)NCCO)[nH]c2ccc(Cl)cc12
EC50 [10]: 31 nM

Cc1ccccc1Sc1c(C(=O)NNCCO)[nH]c2ccc(Cl)cc12
EC50 [10]: 100 nM

O=[N+]([O-])c1ccc(Cl)cc1-n1ccc2ccccc21
EC50 [10]: 5400 nM

Cc1ccccc1Sc1c(C(=O)NCCO)[nH]c2ccc(Cl)cc12
EC50 [10]: 50 nM

CCOC(=O)c1cn(S(=O)(=O)c2ccccc2)c2ccc(Cl)cc12
EC50 [10]: > 42000 nM

Cc1ccccc1S(=O)(=O)c1c(C(=O)NNCCO)[nH]c2ccc(Cl)cc12
EC50 [10]: 50 nM

Nc1ccc(Cl)cc1-n1ccc2ccccc21
EC50 [10]: 6000 nM

Cc1cccc(Sc2c(C(=O)NCCO)[nH]c3ccc(Cl)cc23)c1C
EC50 [10]: 100 nM

Cc1cc(C)cc(Sc2c(C(=O)NNCCO)[nH]c3ccc(Cl)cc23)c1
EC50 [10]: 30 nM

Cc1ccc(S(=O)(=O)c2c(C(=O)NNCCO)[nH]c3ccc(Cl)cc23)cc1
EC50 [10]: 40 nM

O=C(NCCO)c1[nH]c2ccc(Cl)cc2c1S(=O)(=O)c1ccccc1
EC50 [10]: 1 nM

NC(=O)c1cc2cc(Cl)ccc2n1S(=O)(=O)c1ccccc1
EC50 [10]: 66600 nM

Nc1ccc(Cl)c(-n2ccc3ccccc32)c1
EC50 [10]: 3820 nM

Nc1cc(Cl)ccc1-n1ccc2ccccc21
EC50 [10]: 4130 nM

Cc1cc(C)cc(Sc2c(C(=O)NCCO)[nH]c3ccc(Cl)cc23)c1
EC50 [10]: 12 nM

O=[N+]([O-])c1ccccc1-n1ccc2ccccc21
EC50 [10]: 5300 nM

CCOC(=O)c1cc2cc(Cl)ccc2n1S(=O)(=O)c1ccccc1
EC50 [10]: > 200000 nM

O=C(NNCCO)c1[nH]c2ccc(Cl)cc2c1Sc1ccccc1
EC50 [10]: 200 nM

NC(=O)c1[nH]c2ccc(Cl)cc2c1Sc1ccccc1
EC50 [10]: 20 nM

CC(C)OC(=O)c1cn(S(=O)(=O)c2ccccc2)c2ccccc12
EC50 [10]: > 54000 nM

CCOC(=O)c1cn(S(=O)(=O)c2ccccc2)c2ccccc12
EC50 [10]: > 32000 nM

NNC(=O)c1[nH]c2ccc(Cl)cc2c1S(=O)(=O)c1cc(Cl)ccc1N
EC50 [10]: 300 nM

NC(=O)c1[nH]c2ccccc2c1S(=O)(=O)c1cc(Cl)ccc1N
EC50 [10]: 300 nM

NC(=O)c1[nH]c2ccc(Cl)cc2c1S(=O)(=O)c1cc(Cl)ccc1N
EC50 [10]: 40 nM

Cc1cc(C)cc(Sc2c(C(N)=O)[nH]c3ccc(Cl)cc23)c1
EC50 [10]: 6 nM

CCOC(=O)c1cc2ccccc2n1S(=O)(=O)c1ccccc1[N+](=O)[O-]
EC50 [10]: 1800 nM

CCOC(=O)c1[nH]c2ccccc2c1Sc1ccccc1
EC50 [10]: 1400 nM

NNC(=O)c1[nH]c2ccc(Cl)cc2c1Sc1cc(Cl)ccc1N
EC50 [10]: > 13000 nM

CCOC(=O)c1[nH]c2ccccc2c1Sc1cc(Cl)ccc1N
EC50 [10]: ≥ 200000 nM

CC(C)c1ccc(S(=O)(=O)c2c(C(N)=O)[nH]c3ccc(Cl)cc23)cc1
EC50 [10]: 80 nM

Cc1ccc(S(=O)(=O)c2c(C(N)=O)[nH]c3ccc(Cl)cc23)c(C)c1
EC50 [10]: 4 nM

Cc1cc(C)cc(S(=O)(=O)c2c(C(=O)NCCO)[nH]c3ccc(Cl)cc23)c1
EC50 [10]: 0.8 nM

Cc1ccc(S(=O)(=O)c2c(C(=O)NCCO)[nH]c3ccc(Cl)cc23)c(C)c1
EC50 [10]: 8 nM

CCOC(=O)c1[nH]c2ccccc2c1Sc1ccccc1N
EC50 [10]: > 200000 nM

Cc1ccc(S(=O)(=O)c2c(C(=O)NCCO)[nH]c3ccc(Cl)cc23)cc1
EC50 [10]: 43 nM

O=[N+]([O-])c1cc(Cl)ccc1-n1ccc2ccccc21
EC50 [10]: 4800 nM

Cc1ccc(Sc2c(C(=O)NNCCO)[nH]c3ccc(Cl)cc23)cc1
EC50 [10]: 600 nM

CCOC(=O)c1cc2ccccc2n1S(=O)(=O)c1ccc(Cl)cc1
EC50 [10]: > 100000 nM

CC(C)OC(=O)c1cn(S(=O)(=O)c2ccccc2)c2ccc(Cl)cc12
EC50 [10]: > 200000 nM

O=C(NNCCO)c1[nH]c2ccc(Cl)cc2c1S(=O)(=O)c1ccccc1
EC50 [10]: 10 nM

O=[N+]([O-])c1ccc(Cl)c(-n2ccc3ccccc32)c1
EC50 [10]: 5220 nM

Cc1cccc(S(=O)(=O)c2c(C(=O)NCCO)[nH]c3ccc(Cl)cc23)c1
EC50 [10]: 3 nM

O=S(=O)(c1ccccc1)n1ccc2cc(Cl)ccc21
EC50 [10]: > 75000 nM

Cc1cccc(Sc2c(C(=O)NCCO)[nH]c3ccc(Cl)cc23)c1
EC50 [10]: 80 nM

CCOC(=O)c1cc2cc(Cl)ccc2n1S(=O)(=O)c1cc(Cl)ccc1[N+](=O)[O-]
EC50 [10]: > 31000 nM

Cc1ccc(Sc2c(C(=O)NCCO)[nH]c3ccc(Cl)cc23)cc1
EC50 [10]: 120 nM

Cc1ccc(S(=O)(=O)c2c(C(=O)NN)[nH]c3ccc(Cl)cc23)cc1
EC50 [10]: 50 nM

Cc1ccc(S(=O)(=O)c2c(C(=O)NNCCO)[nH]c3ccc(Cl)cc23)c(C)c1
EC50 [10]: 80 nM

NC(=O)c1[nH]c2ccccc2c1S(=O)(=O)c1ccccc1
EC50 [10]: 180 nM

CCOC(=O)c1cc2cc(Cl)ccc2n1S(=O)(=O)c1ccc(C)cc1
EC50 [10]: > 200000 nM

NNC(=O)c1[nH]c2ccc(Cl)cc2c1Sc1ccc(F)cc1
EC50 [10]: 5000 nM

NC(=O)c1cn(S(=O)(=O)c2ccccc2)c2ccccc12
EC50 [10]: > 32000 nM

NNC(=O)c1[nH]c2ccc(Cl)cc2c1S(=O)(=O)c1ccc(Cl)cc1
EC50 [10]: 190 nM

NNC(=O)c1[nH]c2ccccc2c1S(=O)(=O)c1ccccc1
EC50 [10]: 530 nM

NNC(=O)c1[nH]c2ccc(Cl)cc2c1Sc1ccc(Cl)cc1
EC50 [10]: 10000 nM

NC(=O)c1[nH]c2ccc(Cl)cc2c1S(=O)(=O)c1c(Cl)cccc1Cl
EC50 [10]: 100 nM

NC(=O)c1[nH]c2ccccc2c1Sc1cc(Cl)ccc1N
EC50 [10]: 9000 nM

Cc1cc(C)cc(S(=O)(=O)c2c(C(=O)NN)[nH]c3ccc(Cl)cc23)c1
EC50 [10]: 130 nM

NNC(=O)c1[nH]c2ccc(Cl)cc2c1S(=O)(=O)c1ccccc1
EC50 [10]: 10 nM

CC(C)(C)c1ccc(Sc2c(C(N)=O)[nH]c3ccc(Cl)cc23)cc1
EC50 [10]: 8000 nM

Cc1cccc(S(=O)(=O)c2c(C(N)=O)[nH]c3ccc(Cl)cc23)c1
EC50 [10]: 1 nM

O=S(=O)(c1ccccc1)n1ccc2ccccc21
EC50 [10]: > 150000 nM

NNC(=O)c1[nH]c2ccc(Cl)cc2c1Sc1ccccc1
EC50 [10]: 550 nM

Cc1cc(C)cc(S(=O)(=O)c2c(C(N)=O)[nH]c3ccc(Br)cc23)c1
EC50 [10]: 2 nM

CCOC(=O)c1cc2ccccc2n1S(=O)(=O)c1cc(Cl)ccc1[N+](=O)[O-]
EC50 [10]: > 100000 nM

NNC(=O)c1cc2ccccc2n1S(=O)(=O)c1ccccc1
EC50 [10]: > 200000 nM

CCOC(=O)c1[nH]c2ccc(Cl)cc2c1S(=O)(=O)c1ccccc1N
EC50 [10]: > 200000 nM

Cc1ccccc1Sc1c(C(N)=O)[nH]c2ccc(Cl)cc12
EC50 [10]: 300 nM

Cc1ccccc1S(=O)(=O)c1c(C(N)=O)[nH]c2ccc(Cl)cc12
EC50 [10]: 1 nM

NNC(=O)c1[nH]c2ccc(Cl)cc2c1S(=O)(=O)c1ccc(F)cc1
EC50 [10]: 320 nM

Cc1ccc(S(=O)(=O)c2c(C(N)=O)[nH]c3ccc(Cl)cc23)cc1
EC50 [10]: 3 nM

Cc1ccc(Sc2c(C(N)=O)[nH]c3ccc(Cl)cc23)cc1
EC50 [10]: > 450 nM

Cc1cc(C)cc(S(=O)(=O)c2c(C(N)=O)[nH]c3ccc(Cl)cc23)c1
EC50 [10]: 4 nM

O=C1Nc2ccc(Cl)cc2[C@@](C#CC2CC2)(C(F)(F)F)O1 [EFAVIRENZ]
EC50 [11]: > 20000 nM
CC50 [12]: > 100000 nM
EC50 [13]: 7 nM
EC50 [14]: > 20000 nM

NC(=O)c1[nH]c2ccc(Cl)cc2c1S(=O)(=O)c1ccccc1 [L-737126]
EC50 [10]: 1 nM
